In this assay the target is T1, Phospholipase D1 (Homo sapiens, UniProt Q13393).
T1 sequence (Q13393 whole entry): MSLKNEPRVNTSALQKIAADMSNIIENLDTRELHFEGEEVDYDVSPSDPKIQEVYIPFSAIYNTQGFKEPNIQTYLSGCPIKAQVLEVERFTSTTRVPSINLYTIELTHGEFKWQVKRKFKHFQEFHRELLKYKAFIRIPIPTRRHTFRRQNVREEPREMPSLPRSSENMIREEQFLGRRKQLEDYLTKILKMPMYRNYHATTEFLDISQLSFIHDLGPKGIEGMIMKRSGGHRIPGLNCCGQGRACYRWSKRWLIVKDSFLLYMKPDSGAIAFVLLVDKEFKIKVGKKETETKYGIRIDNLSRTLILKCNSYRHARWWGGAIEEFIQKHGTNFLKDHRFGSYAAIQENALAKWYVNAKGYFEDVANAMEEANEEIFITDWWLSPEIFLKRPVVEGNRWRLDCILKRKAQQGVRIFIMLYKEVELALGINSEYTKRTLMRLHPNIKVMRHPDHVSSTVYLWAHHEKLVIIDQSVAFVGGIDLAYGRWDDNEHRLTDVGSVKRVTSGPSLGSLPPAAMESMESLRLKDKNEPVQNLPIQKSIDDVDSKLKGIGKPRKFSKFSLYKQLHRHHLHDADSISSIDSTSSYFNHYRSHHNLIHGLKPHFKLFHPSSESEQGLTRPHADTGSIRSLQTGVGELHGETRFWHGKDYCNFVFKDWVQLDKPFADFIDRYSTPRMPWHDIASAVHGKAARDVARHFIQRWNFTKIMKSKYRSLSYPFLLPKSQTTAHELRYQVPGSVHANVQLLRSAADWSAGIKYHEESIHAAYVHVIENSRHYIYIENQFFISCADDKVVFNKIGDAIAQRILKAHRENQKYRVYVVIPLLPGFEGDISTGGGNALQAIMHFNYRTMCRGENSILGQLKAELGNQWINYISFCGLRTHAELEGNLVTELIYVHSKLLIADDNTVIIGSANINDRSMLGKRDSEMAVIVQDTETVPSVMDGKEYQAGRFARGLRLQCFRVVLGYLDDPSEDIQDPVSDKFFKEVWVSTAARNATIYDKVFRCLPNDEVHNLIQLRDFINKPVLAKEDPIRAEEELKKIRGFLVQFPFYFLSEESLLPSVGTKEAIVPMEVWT
Kind of assay: Inhibition Assay: In one aspect, the compound inhibits PLD activity; that is, a compound can inhibit PLD1 activity and/or PLD2 activity. In a further aspect, the compound inhibits PLD1 response in Calu-1 cells. In a further aspect, the compound inhibits PLD2 response in HEK293gfpPLD2 cells. In a further aspect, the compound inhibits in vitro PLD1 response. In a further aspect, the compound …. The class given is cell-based.

For orientation: IC50 means the point on the concentration scale where inhibition reaches its midpoint. Lower therefore signals higher potency. The molecule `C[C@@H](CN1CCC2(CC1)C(=O)NC[C@@H]2c1ccc(F)cc1)NC(=O)c1ccc(F)cc1` displayed an IC50 of 1.2 µM.
